Patent US9932341B2, “Use of pyrazolopyrimidine derivatives for the treatment of PI3K-delta related disorders” (Incyte Corporation, priority 2013, dated 2018)
pIC50: −log10 of the molar value. Counter-ions that a name gives are not always drawn.

These molecules were tested against PI3Kδ (p110δ/p85α) (Homo sapiens (Human), UniProt O00329) (assay: PI3Kδ Scintillation Proximity Assay (Example A3)). Settings: 20 μM ATP, 20 μM PIP2, 4 nM PI3Kδ, read-out: PI3Kδ SPA IC50.
Chain of PI3Kδ (p110δ/p85α) (O00329 whole entry): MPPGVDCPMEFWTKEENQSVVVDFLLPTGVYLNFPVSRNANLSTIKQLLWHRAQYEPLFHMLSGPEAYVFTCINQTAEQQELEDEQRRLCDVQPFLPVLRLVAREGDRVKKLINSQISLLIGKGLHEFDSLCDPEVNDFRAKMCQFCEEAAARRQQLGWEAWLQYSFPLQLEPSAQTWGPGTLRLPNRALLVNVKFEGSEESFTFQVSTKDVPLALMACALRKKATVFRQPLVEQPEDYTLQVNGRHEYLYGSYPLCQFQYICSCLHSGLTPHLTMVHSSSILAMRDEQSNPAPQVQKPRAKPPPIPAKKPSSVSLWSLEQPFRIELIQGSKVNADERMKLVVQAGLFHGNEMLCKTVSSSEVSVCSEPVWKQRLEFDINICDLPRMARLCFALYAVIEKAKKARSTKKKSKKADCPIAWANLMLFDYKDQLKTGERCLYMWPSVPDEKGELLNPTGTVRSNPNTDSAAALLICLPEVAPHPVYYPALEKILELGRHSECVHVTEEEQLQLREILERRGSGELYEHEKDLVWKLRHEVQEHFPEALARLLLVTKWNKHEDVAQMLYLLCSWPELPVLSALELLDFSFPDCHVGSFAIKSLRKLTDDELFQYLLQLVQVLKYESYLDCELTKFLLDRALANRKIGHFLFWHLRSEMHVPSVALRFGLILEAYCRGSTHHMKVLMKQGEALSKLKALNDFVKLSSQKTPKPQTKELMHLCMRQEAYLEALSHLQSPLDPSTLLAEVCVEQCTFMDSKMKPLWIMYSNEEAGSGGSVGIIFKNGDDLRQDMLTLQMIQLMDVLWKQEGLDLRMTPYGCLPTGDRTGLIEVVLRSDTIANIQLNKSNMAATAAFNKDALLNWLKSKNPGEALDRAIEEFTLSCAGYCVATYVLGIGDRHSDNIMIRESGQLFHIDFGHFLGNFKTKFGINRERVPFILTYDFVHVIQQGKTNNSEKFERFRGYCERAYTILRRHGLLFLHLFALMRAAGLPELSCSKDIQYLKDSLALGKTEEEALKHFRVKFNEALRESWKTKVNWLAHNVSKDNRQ
Chain of PI3Kδ (p110δ/p85α) (P27986 whole entry partner): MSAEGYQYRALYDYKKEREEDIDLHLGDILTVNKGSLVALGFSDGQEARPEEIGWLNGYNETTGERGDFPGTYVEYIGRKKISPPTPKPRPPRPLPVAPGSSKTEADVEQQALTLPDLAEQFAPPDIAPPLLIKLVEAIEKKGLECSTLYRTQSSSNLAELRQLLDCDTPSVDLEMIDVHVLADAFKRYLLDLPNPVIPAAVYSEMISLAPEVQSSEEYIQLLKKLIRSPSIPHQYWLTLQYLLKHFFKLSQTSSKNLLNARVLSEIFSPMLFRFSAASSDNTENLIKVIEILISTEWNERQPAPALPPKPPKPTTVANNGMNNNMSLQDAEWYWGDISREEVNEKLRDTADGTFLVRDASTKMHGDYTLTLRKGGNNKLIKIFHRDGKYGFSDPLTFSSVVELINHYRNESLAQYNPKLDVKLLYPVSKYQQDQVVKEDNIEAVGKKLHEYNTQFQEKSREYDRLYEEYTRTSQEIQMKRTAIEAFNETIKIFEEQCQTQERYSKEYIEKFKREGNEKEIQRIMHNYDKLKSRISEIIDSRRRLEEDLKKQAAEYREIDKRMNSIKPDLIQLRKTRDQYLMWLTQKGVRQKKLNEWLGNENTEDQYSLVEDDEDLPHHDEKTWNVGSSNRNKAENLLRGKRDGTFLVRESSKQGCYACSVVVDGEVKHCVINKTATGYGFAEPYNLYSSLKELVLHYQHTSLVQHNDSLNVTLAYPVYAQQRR
Format: biochemical
Description: [γ-^33P]ATP (10 mCi/mL) was purchased from PerkinElmer (Waltham, Mass.). […] PI3Kδ (p110δ/p85α) was purchased from Millipore (Bedford, Mass.). ATP, MgCl2, DTT, EDTA, MOPS and CHAPS were purchased from Sigma-Aldrich (St. Louis, Mo.). Wheat Germ Agglutinin (WGA) YSi SPA Scintillation Beads was purchased from GE healthcare life sciences (Piscataway, N.J.).
The kinase reaction was conducted in polystyrene 384-well matrix white plate from Thermo Fisher Scientific in a final volume of 25 μL. Inhibitors were first diluted serially in DMSO and added to the plate wells before the addition of other reaction components. The final concentration of DMSO in the assay was 0.5%. The PI3K assays were carried out at room temperature in 20 mM MOPS, pH 6.7, 10 mM MgCl2, 5 mM DTT and CHAPS 0.03%. Reactions were initiated by the addition of ATP, the final reaction mixture consisted of 20 μM PIP2, 20 μM ATP, 0.2 μCi [γ-^33P] ATP, 4 nM PI3Kδ. […] 25 mM EDTA, 400 μM ATP. The final concentration of SPA beads was 1.0 mg/mL. After the plate sealing, plates were shaken overnight at room temperature and centrifuged at 1800 rpm for 10 minutes, the radioactivity of the product was determined by scintillation counting on Topcount (PerkinElmer). IC50 determination was performed by fitting the curve of percent control activity versus the log of the inhibitor concentration using the GraphPad Prism 3.0 software.
`CCOc1c(C(C)n2nc(C)c3c(N)ncnc32)cc(Cl)c(C#N)c1C1CN(C(C)(C)C(=O)OC(C)(C)C)C1` (single isomer, unassigned) [Example 236, tert-Butyl 2-(3-{3-[1-(4-amino-3-methyl-1H-pyrazolo[3,4-d]pyrimidin-1-yl)ethyl]-5-chloro-6-cyano-2-ethoxyphenyl}azetidin-1-yl)-2-methylpropanoate] was tested, and the pIC50 was greater than 8.00. With `COc1c(C(C)n2nc(C)c3c(N)ncnc32)cc(Cl)c(C)c1-c1cnn(CCN(C)C)c1` (single isomer, unassigned) [Example 183, 1-[1-(5-Chloro-3-{1-[2-(dimethylamino)ethyl]-1H-pyrazol-4-yl}-2-methoxy-4-methylphenyl)ethyl]-3-methyl-1H-pyrazolo[3,4-d]pyrimidin-4-amine] the pIC50 was greater than 8.00. `COc1c(C(C)n2nc(C)c3c(N)ncnc32)cc(Cl)c(C)c1C1CCN(CC(C)(C)O)CC1` (racemic) [Example 164, 1-(4-{3-[1-(4-Amino-3-methyl-1H-pyrazolo[3,4-d]pyrimidin-1-yl)ethyl]-5-chloro-2-methoxy-6-methylphenyl}piperidin-1-yl)-2-methylpropan-2-ol] was tested, and the pIC50 was greater than 8.00. With `COc1c(C(C)n2nc(C)c3c(N)ncnc32)cc(Cl)c(C)c1C1CN(CC(F)(F)F)C1` (single isomer, unassigned) [Example 108, 1-(1-{5-Chloro-2-methoxy-4-methyl-3-[1-(2,2,2-trifluoroethyl)azetidin-3-yl]phenyl}ethyl)-3-methyl-1H-pyrazolo[3,4-d]pyrimidin-4-amine] the pIC50 was greater than 8.00. `CCOc1c(C(C)n2nc(C)c3c(N)ncnc32)cc(Cl)c(F)c1C1CN(C(C)C)C1` (stereo not drawn) [139 (1st peak), 1-{1-[5-Chloro-2-ethoxy-4-fluoro-3-(1-isopropylazetidin-3-yl)phenyl]ethyl}-3-methyl-1H-pyrazolo[3,4-d]pyrimidin-4-amine] gave a pIC50 greater than 8.00. `CCOc1c(C(C)n2nc(C)c3c(N)ncnc32)cc(Cl)c(F)c1C1CN(C[C@H](C)O)C1` (stereo partly drawn) [Example 149, (2S)-1-(3-{3-[1-(4-Amino-3-methyl-1H-pyrazolo[3,4-d]pyrimidin-1-yl)ethyl]-5-chloro-2-ethoxy-6-fluorophenyl}azetidin-1-yl)propan-2-ol] was tested, and the pIC50 was greater than 8.00. With `CCOc1c(C(C)n2nc(C)c3c(N)ncnc32)cc(Cl)c(C)c1-c1ccc(C(=O)N(C)C)nc1` (centres unmarked) [Example 14, 5-{3-[1-(4-Amino-3-methyl-1H-pyrazolo[3,4-d]pyrimidin-1-yl)ethyl]-5-chloro-2-ethoxy-6-methylphenyl}-N,N-dimethylpyridine-2-carboxamide bis(trifluoroacetate)] the pIC50 was greater than 8.00. `CCOc1c(C(C)n2nc(C)c3c(N)ncnc32)cc(Cl)c(F)c1C1CNC(=O)O1` (single isomer, unassigned) [Example 355, 5-{3-[1-(4-amino-3-methyl-1H-pyrazolo[3,4-d]pyrimidin-1-yl)ethyl]-5-chloro-2-ethoxy-6-fluorophenyl}-1,3-oxazolidin-2-one] was tested, and the pIC50 was 6.70 to 7.30. Molecule `COc1c(C(C)n2nc(C)c3c(N)ncnc32)cc(Cl)c(C)c1C1CN(CCO)C1` (single isomer, unassigned) [Example 104, 2-(3-{3-[1-(4-Amino-3-methyl-1H-pyrazolo[3,4-d]pyrimidin-1-yl)ethyl]-5-chloro-2-methoxy-6-methylphenyl}azetidin-1-yl)ethanol] has a pIC50 greater than 8.00. For `CCOc1c(C(C)n2nc(C)c3c(N)ncnc32)cc(C)c(C#N)c1C1CN(C(=O)C(C)(C)O)C1` (single isomer, unassigned) [322 (1st peak), 4-[1-(4-amino-3-methyl-1H-pyrazolo[3,4-d]pyrimidin-1-yl)ethyl]-3-ethoxy-2-[1-(2-hydroxy-2-methylpropanoyl)azetidin-3-yl]-6-methylbenzonitrile], the pIC50 was greater than 8.00. With `COc1c(C(C)n2nc(C)c3c(N)ncnc32)cc(Cl)c(C)c1C1CN(C(CO)C(F)(F)F)C1` (centres unmarked) [Example 113, 2-(3-{3-[1-(4-Amino-3-methyl-1H-pyrazolo[3,4-d]pyrimidin-1-yl)ethyl]-5-chloro-2-methoxy-6-methylphenyl}azetidin-1-yl)-3,3,3-trifluoropropan-1-ol] the pIC50 was greater than 8.00. `COc1c(C(C)n2nc(C)c3c(N)ncnc32)cc(Cl)c(C)c1C1CNC(=O)CO1` (single isomer, unassigned) [324 (2nd peak), 6-{3-[1-(4-Amino-3-methyl-1H-pyrazolo[3,4-d]pyrimidin-1-yl)ethyl]-5-chloro-2-methoxy-6-methylphenyl}morpholin-3-one] gave a pIC50 greater than 8.00. Work on `CNC(=O)c1cc(-c2c(C)c(Cl)cc(C(C)n3nc(C)c4c(N)ncnc43)c2OC)ccn1` (racemic) [Example 17, 4-(3-(1-(4-amino-3-methyl-1H-pyrazolo[3,4-c]pyrimidin-1-yl)ethyl)-5-chloro-2-methoxy-6-methylphenyl)-N-methylpicolinamide] yielded a pIC50 greater than 8.00. `COc1c(C(C)n2nc(C)c3c(N)ncnc32)cc(Cl)c(C)c1-c1ccnc(C(=O)N(C)C)c1` (centres unmarked) [Example 200, 4-(3-(1-(4-Amino-3-methyl-1H-pyrazolo[3,4-d]pyrimidin-1-yl)ethyl)-5-chloro-2-methoxy-6-methylphenyl)-N,N-dimethylpicolinamide bis(2,2,2-trifluoroacetate)] was tested, and the pIC50 was greater than 8.00. `CCOc1c(C(C)n2nc(C)c3c(N)ncnc32)cc(Cl)c(C#N)c1C1CN(C(C)(C)CO)C1` (single isomer, unassigned) [Example 237, 4-[1-(4-Amino-3-methyl-1H-pyrazolo[3,4-d]pyrimidin-1-yl)ethyl]-6-chloro-3-ethoxy-2-[1-(2-hydroxy-1,1-dimethylethyl)azetidin-3-yl]benzonitrile] was tested, and the pIC50 was greater than 8.00. `CCOc1c(C(C)n2nc(C)c3c(N)ncnc32)cc(Cl)c(C#N)c1N1CCCC1` (racemic) [Example 318, 4-[1-(4-amino-3-methyl-1H-pyrazolo[3,4-d]pyrimidin-1-yl)ethyl]-6-chloro-3-ethoxy-2-pyrrolidin-1-ylbenzo nitrile] gave a pIC50 greater than 8.00. For `COc1c(C(C)n2nc(C)c3c(N)ncnc32)cc(Cl)c(C)c1C1CN(C(=O)[C@H](C)O)C1` (single isomer, unassigned) [Example 118], the pIC50 was greater than 8.00. `CCOc1c(C(C)n2nc(C)c3c(N)ncnc32)cc(Cl)c(C#N)c1N1CC(OC)C1` (racemic) [Example 319, 4-[1-(4-amino-3-methyl-1H-pyrazolo[3,4-d]pyrimidin-1-yl)ethyl]-6-chloro-3-ethoxy-2-(3-methoxyazetidin-1-yl)benzonitrile] was tested, and the pIC50 was greater than 8.00. Molecule `CCOc1c(C(C)n2nc(C)c3c(N)ncnc32)cc(Cl)c(C#N)c1C1CN(C(=O)C(C)(C)O)C1` (single isomer, unassigned) [Example 247, 4-[1-(4-Amino-3-methyl-1H-pyrazolo[3,4-d]pyrimidin-1-yl)ethyl]-6-chloro-3-ethoxy-2-[1-(2-hydroxy-2-methylpropanoyl)azetidin-3-yl]benzonitrile] has a pIC50 greater than 8.00. `COc1c(C(C)n2nc(C)c3c(N)ncnc32)cc(Cl)c(C)c1C1CNC(=O)O1` (centres unmarked) [Example 325, 5-{3-[1-(4-Amino-3-methyl-1H-pyrazolo[3,4-d]pyrimidin-1-yl)ethyl]-5-chloro-2-methoxy-6-methylphenyl}-1,3-oxazolidin-2-one] gave a pIC50 greater than 8.00. Molecule `COc1c(C(C)n2nc(C)c3c(N)ncnc32)cc(Cl)c(C)c1C1CN(C(=O)[C@@H](C)O)C1` (single isomer, unassigned) [Example 121, trifluoroacetate] has a pIC50 greater than 8.00. `CCN1CC(c2c(C)c(Cl)cc(C(C)n3nc(C)c4c(N)ncnc43)c2OC)C1` (racemic) [Example 6, 1-{1-[5-Chloro-3-(1-ethylazetidin-3-yl)-2-methoxy-4-methylphenyl]ethyl}-3-methyl-1H-pyrazolo[3,4-d]pyrimidin-4-amine] showed a pIC50 greater than 8.00. `COc1c(C(C)n2nc(C)c3c(N)ncnc32)cc(Cl)c(C)c1C1CN(CC2CC2)C1` (racemic) [Example 4, 1-(1-{5-Chloro-3-[1-(cyclopropylmethyl)azetidin-3-yl]-2-methoxy-4-methylphenyl}ethyl)-3-methyl-1H-pyrazolo[3,4-d]pyrimidin-4-amine bis(trifluoroacetate)] showed a pIC50 greater than 8.00. Molecule `CCOc1c(C(C)n2nc(C)c3c(N)ncnc32)cc(Cl)c(C#N)c1-c1ccc(C(C)(C)O)nc1` (racemic) [Example 316, 4-[1-(4-amino-3-methyl-1H-pyrazolo[3,4-d]pyrimidin-1-yl)ethyl]-6-chloro-3-ethoxy-2-[6-(1-hydroxy-1-methylethyl)pyridin-3-yl]benzonitrile] has a pIC50 greater than 8.00. Molecule `CCOc1c(C(C)n2nc(C)c3c(N)ncnc32)cc(Cl)c(C)c1-c1ccc(C(=O)N(C)C)cn1` (centres unmarked) [Example 208, 6-{3-[1-(4-Amino-3-methyl-1H-pyrazolo[3,4-d]pyrimidin-1-yl)ethyl]-5-chloro-2-ethoxy-6-methylphenyl}-N,N-dimethylnicotinamide bis(trifluoroacetate)] has a pIC50 greater than 8.00. For `COc1c(C(C)n2nc(C)c3c(N)ncnc32)cc(Cl)c(C#N)c1C1CN(C(=O)N(C)C)C1` (single isomer, unassigned) [Example 296, 3-{3-[1-(4-Amino-3-methyl-1H-pyrazolo[3,4-d]pyrimidin-1-yl)ethyl]-5-chloro-6-cyano-2-methoxyphenyl}-N,N-dimethylazetidine-1-carboxamide], the pIC50 was greater than 8.00.
